One test deals with T1, human B-Raf V600E (Homo sapiens, UniProt P15056, V600E).
T1 construct: B-RafV600E (residues 433-726 containing V600E mutation) containing an N-terminal purification tag is expressed and purified; made in house
Description: Enzymatic assay of B-Raf V600E kinase activity (Raf/MEK1 ATPase, coupled PK/LDH, A340). The format is biochemical. Conditions: read-out: Enzyme IC50, nM B-Raf V600E. On the procedure:
Test compounds are evaluated for their inhibitory activities against one or more of human wild type B-Raf, human wild type C-Raf, human B-Raf V600E, human B-Raf V600E+T529I or human B-Raf V600E+G468A. T529I is a threonine to isoleucine B-Raf gatekeeper mutation and G468A is a B-Raf secondary mutation at G1403C in exon 11. The enzymatic assays of B-Raf, C-Raf and B-Raf mutations evaluate a property of Raf and MEK1 complex, which in the presence of ATP, catalyzes an enhanced ATP hydrolysis (Rominger, et al, Arch. Biochem. Biophys. 2007, 464: 130-137; US Patent Publication No. 2006/0211073). The ADP formed is monitored by the well-known coupled PK/LDH (pyruvate kinase/lactate dehydrogenase) system in the form of NADH oxidation, which can be monitored and detected spectrophotometrically by absorbance at 340 nm (A340; for principal of the method see Schindler et al, Science, 2000, 289: 1938-1942). Raf activated MEK1 ATPase activity is a property shared by all forms of Raf proteins.
B-RafV600E (residues 433-726 containing V600E mutation) containing an N-terminal purification tag is expressed and purified essentially as described previously (Wan et al, Cell, 2004, 116, 855-867).
Test compounds are evaluated for their inhibitory activities against one or more of wild type B-Raf, wild type C-Raf, B-Raf V600E, B-Raf V600E+T529I and B-Raf V600E+G468A. T529I is a B-Raf gatekeeper mutation and G468A is a B-Raf secondary mutation. The enzymatic assays of B-Raf, C-Raf and B-Raf mutations evaluate a property of Raf and MEK1 complex, which in the presence of ATP, catalyzes an enhanced ATP hydrolysis (Rominger, et al, Arch. Biochem. Biophys. 2007, 464: 130-137). The ADP formed is monitored by the well-known coupled PK/LDH (pyruvate kinase/lactate dehydrogenase) system in the form of NADH oxidation, which can be monitored and detected by absorbance at 340 nm (A340; for principal of the method see Schindler et al, Science, 2000, 289: 1938-1942). Raf activated MEK1 ATPase activity is a property shared by all forms of Raf proteins. In the B-Raf wild type enzymatic assay, the reaction mixture contains 1.2 nM B-Raf, 30 nM MEK1, 1000 uM ATP, 3.5 units (per 100 ul) of PK, 5 units (per 100 ul) of LDH, 1 mM phosphoenol pyruvate (PEP), and 280 uM of NADH. In the C-Raf assay, the reaction mixture contains 0.6 nM C-Raf, 26 nM MEK1, 2000 uM ATP, and the same amount of PK, LDH, PEP and NADH as above. In the B-Raf V600E assay, the reaction mixture contains […] B-Raf V600E, 26 nM MEK1, 200 uM ATP and the same amount of PK, LDH, PEP and NADH as above. In the B-RafV600E+T529I assay, the reaction mixture contains 6.2 nM B-Raf V600E+T529I, 30 nM MEK1, 200 uM ATP and the same amount of PK, LDH, PEP and NADH as above. In the B-Raf V600E+G468A assay, the reaction mixture contains 3.5 nM B-Raf, 30 nM MEK1, 200 uM ATP and the same amount of PK, LDH, PEP and NADH as above. All assays are started by mixing the above mixture with test compound and monitoring at A340 continuously for approximately 5 hr. […] In the aforementioned assays, the enzyme constructs can be screened prior to or after cleavage of the N-terminal purification tag.

Another test deals with A375 cells. Description: A375 cell proliferation assay (CellTiter-Blue/resazurin). Format: cell-based. The note with it: Homo sapiens, A-375, V600E mutation, read-out: Cell Proliferation Inhibition IC50, nM A375. On the procedure:
A375 cells (catalog #CRL-1619) are obtained from the American Type Culture Collection (ATCC, Manassas, Va.). Briefly, cells are grown in DMEM High Glucose supplemented with 10% characterized fetal bovine serum (Invitrogen, Carlsbad, Calif.) and 1% Penicillin/Streptomycin/L-Glutamine at 37 degrees Celsius, 5% CO2, and 95% humidity. Cells are allowed to expand until reaching 70-95% confluency at which point they are subcultured or harvested for assay use. A serial dilution of test compound is dispensed into a 384-well black clear bottom plate in triplicate. Six hundred twenty-five cells are added per well in 50 μL complete growth medium in the 384-well plate. Plates are incubated for 67 hours at 37 degrees Celsius, 5% CO2, and 95% humidity. At the end of the incubation period, 10 μL of a 440 μM solution of resazurin (Sigma, St. Louis, Mo.) in PBS is added to each well of the plate and plates are incubated for an additional 5 hours at 37 degrees Celsius, 5% CO2, and 95% humidity. Plates are read on a Synergy2 reader (Biotek, Winooski, Vt.) using an excitation of 540 nm and an emission of 600 nm. Data is analyzed using Prism software (Graphpad, San Diego, Calif.) to calculate IC50 values.
The A375, HT-29, and Colo-205 cells (ATCC) harbor a V600E mutation.
On the technique in general: Alamar Blue is a resazurin reagent that responds to reducing activity.

Another test addresses T2, human wild type c-KIT (Homo sapiens, UniProt P10721).
T2 construct: GST (N); made in house
Description: Enzymatic assay of c-Kit kinase activity (poly E4Y phosphorylation, coupled PK/LDH). The format is biochemical. The source says:
c-Kit is an important oncogene, and its overexpression and genetic mutations often occur in melanoma and gastrointestinal stromal tumor (GIST) patients. In the c-Kit enzymatic assay, the phosphorylation of poly E4Y by ATP catalyzed by human c-Kit is monitored spectrophotometrically. The ADP produced from the kinase reaction is coupled to pyruvate kinase/lactate dehydrogenase (PK/LDH) reactions where NAD is formed from pyruvate and NADH. NADH can be detected by absorbance at 340 nm, as described above for enzymatic assays of kinase activities of B-Raf, C-Raf and B-Raf mutations.
The assay reaction mixture includes 6 nM human wild type c-KIT, 1 mg/mL Poly (Glu,Tyr) (Sigma), 1 mM Phosphoenol-pyruvate, 280 μM NADH, 5 U/3.5 U (per 100 ul) Pyruvate Kinase/Lactate Dehydrogenase, 85 mM Tris, pH 7.5, 17 mM MgCl2, 0.0042% Triton® X-100, 0.005% BSA, 1% DMSO. Test compound is incubated with the reaction mixture for 0.5 hour before adding 200 μM ATP to start the reaction at 30° C.

pIC50: −log10 of the molar value. Bounds are passed on as bounds.

T1 sequence (P15056 433-726 V600E): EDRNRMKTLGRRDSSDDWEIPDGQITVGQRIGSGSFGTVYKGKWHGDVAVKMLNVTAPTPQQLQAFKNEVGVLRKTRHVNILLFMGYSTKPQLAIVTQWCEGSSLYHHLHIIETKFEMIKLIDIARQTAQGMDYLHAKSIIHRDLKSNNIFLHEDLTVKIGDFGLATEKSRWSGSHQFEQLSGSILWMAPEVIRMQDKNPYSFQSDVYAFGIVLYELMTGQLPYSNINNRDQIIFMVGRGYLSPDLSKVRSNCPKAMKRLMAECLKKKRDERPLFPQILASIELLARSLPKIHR
T2 sequence (P10721 26-976): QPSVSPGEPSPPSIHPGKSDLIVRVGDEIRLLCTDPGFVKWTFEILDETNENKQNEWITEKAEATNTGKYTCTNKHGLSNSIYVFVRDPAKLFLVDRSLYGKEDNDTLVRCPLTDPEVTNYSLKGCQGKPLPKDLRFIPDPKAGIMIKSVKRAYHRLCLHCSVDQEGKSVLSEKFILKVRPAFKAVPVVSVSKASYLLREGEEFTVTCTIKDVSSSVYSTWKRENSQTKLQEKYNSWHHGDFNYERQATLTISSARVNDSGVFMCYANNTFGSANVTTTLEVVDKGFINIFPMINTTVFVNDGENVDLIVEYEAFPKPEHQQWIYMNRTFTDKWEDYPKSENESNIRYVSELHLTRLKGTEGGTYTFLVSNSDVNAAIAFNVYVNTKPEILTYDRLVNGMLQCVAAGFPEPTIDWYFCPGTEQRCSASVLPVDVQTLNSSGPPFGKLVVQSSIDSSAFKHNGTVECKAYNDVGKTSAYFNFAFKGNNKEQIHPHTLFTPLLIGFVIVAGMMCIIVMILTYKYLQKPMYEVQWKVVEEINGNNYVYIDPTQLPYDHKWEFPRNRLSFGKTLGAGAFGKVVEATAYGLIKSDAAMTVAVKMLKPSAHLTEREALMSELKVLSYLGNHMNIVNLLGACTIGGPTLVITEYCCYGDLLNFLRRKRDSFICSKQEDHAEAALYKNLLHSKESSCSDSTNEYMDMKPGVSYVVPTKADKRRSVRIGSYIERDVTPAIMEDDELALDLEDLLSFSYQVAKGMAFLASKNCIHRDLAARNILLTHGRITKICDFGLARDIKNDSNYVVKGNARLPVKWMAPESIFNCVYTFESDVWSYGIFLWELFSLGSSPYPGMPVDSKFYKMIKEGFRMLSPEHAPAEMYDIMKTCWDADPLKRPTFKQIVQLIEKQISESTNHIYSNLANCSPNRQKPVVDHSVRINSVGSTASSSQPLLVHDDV

Turning to `CNc1ncc2cc(-c3cc(NC(=O)NCCC(C)(C)C)c(F)cc3F)c(C)nc2n1` [Example 1, 1-(2,4-Difluoro-5-(7-methyl-2-(methylamino)pyrido[2,3-d]pyrimidin-6-yl)phenyl)-3-(3,3-dimethylbutyl)urea], the IC50 at human B-Raf V600E was less than 150 nM; in the test with A375 cells it was less than 100 nM. Besides, the pIC50 (in general, the negative decadic logarithm of the IC50, by convention in mol/L) against human wild type c-KIT was more than 6.82.

On to `CNc1ncc2cc(-c3ccc(F)c(NC(=O)NCCC(C)(C)C)c3)c(C)nc2n1` [Example 2, 1-(3,3-Dimethylbutyl)-3-(2-fluoro-5-(7-methyl-2-(methylamino)pyrido[2,3-d]pyrimidin-6-yl)phenyl)urea], for which the IC50 was less than 150 nM on human B-Raf V600E and less than 100 nM with A375 cells. Further, the pIC50 against human wild type c-KIT was more than 6.82.

For the compound `CNc1ncc2cc(-c3cc(NC(=O)NCCC(C)(C)C#N)c(F)cc3C)c(C)nc2n1` [Example 3, 1-(3-Cyano-3-methylbutyl)-3-(2-fluoro-4-methyl-5-(7-methyl-2-(methylamino)pyrido[2,3-d]pyrimidin-6-yl)phenyl)urea], the results for the IC50 on human B-Raf V600E and in the test with A375 cells were less than 150 nM and less than 100 nM, respectively. This compound showed a pIC50 on human wild type c-KIT of more than 6.82.

Take `COCCNc1ncc2cc(-c3cc(NC(=O)NCCC(C)(C)C)c(F)cc3C)c(C)nc2n1` [Example 5, 1-(3,3-Dimethylbutyl)-3-(2-fluoro-5-(2-((2-methoxyethyl)amino)-7-methylpyrido[2,3-d]pyrimidin-6-yl)-4-methylphenyl)urea]: the IC50 was less than 150 nM on human B-Raf V600E and less than 100 nM in the test on A375 cells. The compound further gave a pIC50 at human wild type c-KIT of more than 6.82.

On to `CNc1ncc2cc(-c3cc(NC(=O)NC4CC(C)(C)C4)c(F)cc3C)c(C)nc2n1` [Example 6, 1-(3,3-Dimethylcyclobutyl)-3-(2-fluoro-4-methyl-5-(7-methyl-2-(methylamino)pyrido[2,3-d]pyrimidin-6-yl)phenyl)urea], for which the IC50 on human B-Raf V600E is less than 150 nM; in the test on A375 cells, less than 100 nM. The same compound had a pIC50 on human wild type c-KIT of more than 6.82.

In the case of `CNc1ncc2cc(-c3cc(NC(=O)NC4CC(C)(C)C4)c(F)cc3F)c(C)nc2n1` [Example 7, 1-(2,4-Difluoro-5-(7-methyl-2-(methylamino)pyrido[2,3-d]pyrimidin-6-yl)phenyl)-3-(3,3-dimethylcyclobutyl)urea], the IC50 on human B-Raf V600E is less than 150 nM; with A375 cells, less than 100 nM. The pIC50 at human wild type c-KIT is more than 6.82.

Regarding `CNc1ncc2cc(-c3cc(NC(=O)NCC(O)C(C)(C)C)c(F)cc3C)cnc2n1` (stereo not shown) [Example 8, 1-[2-Fluoro-4-methyl-5-(2-methylaminopyrido[2,3-d]pyrimidin-6-yl)phenyl]-3-(2-hydroxy-3,3-dimethyl-butyl)urea], the values for the IC50 at human B-Raf V600E and with A375 cells were less than 150 nM and 100 to 1000 nM, respectively. Further, the pIC50 on human wild type c-KIT is more than 6.82.

For `CNc1ncc2cc(-c3cc(NC(=O)NCC4CC4(C)C)c(F)cc3C)cnc2n1` (stereo not shown) [Example 9], the IC50 was less than 150 nM at human B-Raf V600E and 100 to 1000 nM with A375 cells. In addition, the pIC50 against human wild type c-KIT is more than 6.82.

With `Cc1cc(F)c(NC(=O)NCC(O)C(C)(C)C)cc1-c1cc2cnc(N)nc2nc1C` (stereo not shown) [Example 10], the IC50 at human B-Raf V600E is less than 150 nM; in the test with A375 cells, 100 to 1000 nM. The negative logarithm of the IC50 (pIC50) against human wild type c-KIT is more than 6.82.

As for `CNc1ncc2cc(-c3cc(NC(=O)NCC(O)C(C)(C)C)c(F)cc3F)c(C)nc2n1` (stereo not shown) [Example 11, 1-[2,4-Difluoro-5-(7-methyl-2-methylamino-pyrido[2,3-d]pyrimidin-6-yl)phenyl]-3-(2-hydroxy-3,3-dimethyl-butyl)urea], the IC50 is less than 150 nM at human B-Raf V600E and 100 to 1000 nM in the test with A375 cells. This compound gave a pIC50 on human wild type c-KIT of more than 6.82.

As to `CNc1ncc2cc(-c3cc(NC(=O)NCCC(C)(C)C#N)c(F)cc3F)c(C)nc2n1` [Example 12, 1-(3-Cyano-3-methylbutyl)-3-(2,4-difluoro-5-(7-methyl-2-(methylamino)pyrido[2,3-d]pyrimidin-6-yl)phenyl)urea], the values for the IC50 at human B-Raf V600E and with A375 cells were less than 150 nM and 1000 to 10000 nM, respectively. Also, the pIC50 at human wild type c-KIT is more than 6.82.

Consider `CNc1ncc2cc(-c3ccc(F)c(NC(=O)NCCC(C)(C)C#N)c3)c(C)nc2n1` [Example 13, 1-(3-Cyano-3-methylbutyl)-3-(2-fluoro-5-(7-methyl-2-(methylamino)pyrido[2,3-d]pyrimidin-6-yl)phenyl)urea], for which the IC50 on human B-Raf V600E is less than 150 nM; in the test on A375 cells, 1000 to 10000 nM. This compound also had a pIC50 against human wild type c-KIT of more than 6.82.

Regarding `CNc1ncc2cc(-c3cc(NC(=O)NCCC(C)(C)OC)c(F)cc3C)c(C)nc2n1` [Example 14, 1-(2-Fluoro-4-methyl-5-(7-methyl-2-(methylamino)pyrido[2,3-d]pyrimidin-6-yl)phenyl)-3-(3-methoxy-3-methylbutyl)urea], the values for the IC50 on human B-Raf V600E and in the test on A375 cells were less than 150 nM and 100 to 1000 nM, respectively. The compound further showed a pIC50 against human wild type c-KIT of more than 6.82.

As for `CNc1ncc2cc(-c3cc(NC(=O)NC[C@H](O)C(C)(C)C)c(F)cc3C)cnc2n1` [Example 18, 1-[2-Fluoro-4-methyl-5-(2-methylaminopyrido[2,3-d]pyrimidin-6-yl)phenyl]-3-[(2R)-2-hydroxy-3,3-dimethyl-butyl]urea], the IC50 on human B-Raf V600E is less than 150 nM; in the test on A375 cells it was 100 to 1000 nM.

Regarding `CNc1ncc2cc(-c3cc(NC(=O)NC[C@@H](O)C(C)(C)C)c(F)cc3C)cnc2n1` [Example 19, 1-[2-fluoro-4-methyl-5-(2-methylaminopyrido[2,3-d]pyrimidin-6-yl)phenyl]-3-[(2S)-2-hydroxy-3,3-dimethyl-butyl]urea], the values for the IC50 on human B-Raf V600E and in the test on A375 cells were less than 150 nM and 100 to 1000 nM, respectively.
